Assay results as given in ChEMBL document CHEMBL3885881, “DrugMatrix”.

Species on record: Rattus norvegicus
Assay: DrugMatrix - Regimen: Daily Repeat
Format: toxicity, organism-based, Sprague-Dawley
Design: regimen Daily Repeat, gender Male, age 6-8 weeks
Settings: in vivo, po, route oral GAVAGE, vehicle .5 % CMC; for ABSOLUTE BASOPHIL / ABSOLUTE EOSINOPHIL / ABSOLUTE LYMPHOCYTE / ABSOLUTE MONOCYTE / ABSOLUTE SEGMENTED NEUTROPHIL / BASOPHIL / EOSINOPHIL / ERYTHROCYTE COUNT / HEMATOCRIT / HEMOGLOBIN / LEUKOCYTE COUNT / LYMPHOCYTE / MEAN CORPUSCULAR HEMOGLOBIN / MEAN CORPUSCULAR HEMOGLOBIN CONCENTRATION / MEAN CORPUSCULAR VOLUME / MONOCYTE / NEUTROPHIL / NUCLEATED RED BLOOD CELLS / PLATELET COUNT: tissue Blood; for ALANINE AMINOTRANSFERASE / ALBUMIN / ALKALINE PHOSPHATASE / ASPARTATE AMINOTRANSFERASE / BLOOD UREA NITROGEN / CARBON DIOXIDE / CHLORIDE / CHOLESTEROL / CREATINE PHOSPHOKINASE / CREATININE / GLUCOSE / LACTATE DEHYDROGENASE / LIPASE / PHOSPHORUS / POTASSIUM / SODIUM / TOTAL BILIRUBIN / TOTAL PROTEIN / URIC ACID: tissue Plasma
[1] = 0 mg/kg, 72 h, dose level Control, time 3 day
[2] = 0 mg/kg, 120 h, dose level Control, time 5 day
[3] = 100 mg/kg, 72 h, dose level Low, time 3 day

Compound: CCc1ccc(C(=O)C(C)CN2CCCCC2)cc1 (centres undefined) [EPERISONE]
- ABSOLUTE BASOPHIL [1]: 0 CELLS/uL
- ABSOLUTE EOSINOPHIL [1]: 284.5 CELLS/uL
- ABSOLUTE LYMPHOCYTE [1]: 11670.5 CELLS/uL
- ABSOLUTE MONOCYTE [1]: 420.83 CELLS/uL
- ABSOLUTE SEGMENTED NEUTROPHIL [1]: 1024.17 CELLS/uL
- BASOPHIL [1]: 0%
- EOSINOPHIL [1]: 1.67%
- ERYTHROCYTE COUNT [1]: 5.38 x10E6/uL
- HEMATOCRIT [1]: 34.05%
- HEMOGLOBIN [1]: 12.75 G/DL
- LEUKOCYTE COUNT [1]: 13.4 x10E3/uL
- LYMPHOCYTE [1]: 88.33%
- MEAN CORPUSCULAR HEMOGLOBIN [1]: 23.73 pg
- MEAN CORPUSCULAR HEMOGLOBIN CONCENTRATION [1]: 37.43 G/DL
- MEAN CORPUSCULAR VOLUME [1]: 63.4 fL
- MONOCYTE [1]: 2.83%
- NEUTROPHIL [1]: 7.17%
- NUCLEATED RED BLOOD CELLS [1]: 0 /100WBC
- PLATELET COUNT [1]: 1184.67 x10E3/uL
- ALANINE AMINOTRANSFERASE [1]: 45.33 u/L
- ALBUMIN [1]: 4.3 G/DL
- ALKALINE PHOSPHATASE [1]: 388.83 u/L
- ASPARTATE AMINOTRANSFERASE [1]: 84.83 u/L
- BLOOD UREA NITROGEN [1]: 15.5 mg/dL
- CARBON DIOXIDE [1]: 27 mmol/L
- CHLORIDE [1]: 101.8 MEQ/L
- CHOLESTEROL [1]: 76.67 mg/dL
- CREATINE PHOSPHOKINASE [1]: 301 u/L
- CREATININE [1]: 0.21 mg/dL
- GLUCOSE [1]: 168.83 mg/dL
- LACTATE DEHYDROGENASE [1]: 294.83 u/L
- LIPASE [1]: 9.8 u/L
- PHOSPHORUS [1]: 13.25 mg/dL
- POTASSIUM [1]: 6.41 MEQ/L
- SODIUM [1]: 143.72 MEQ/L
- TOTAL BILIRUBIN [1]: 0.22 mg/dL
- TOTAL PROTEIN [1]: 5.98 G/DL
- URIC ACID [1]: 1.5 mg/dL
- ABSOLUTE BASOPHIL [2]: 0 CELLS/uL
- ABSOLUTE EOSINOPHIL [2]: 190.67 CELLS/uL
- ABSOLUTE LYMPHOCYTE [2]: 12549.5 CELLS/uL
- ABSOLUTE MONOCYTE [2]: 276 CELLS/uL
- ABSOLUTE SEGMENTED NEUTROPHIL [2]: 1067.17 CELLS/uL
- BASOPHIL [2]: 0%
- EOSINOPHIL [2]: 1.33%
- ERYTHROCYTE COUNT [2]: 5.66 x10E6/uL
- HEMATOCRIT [2]: 35.92%
- HEMOGLOBIN [2]: 13.65 G/DL
- LEUKOCYTE COUNT [2]: 14.08 x10E3/uL
- LYMPHOCYTE [2]: 89%
- MEAN CORPUSCULAR HEMOGLOBIN [2]: 24.12 pg
- MEAN CORPUSCULAR HEMOGLOBIN CONCENTRATION [2]: 38.03 G/DL
- MEAN CORPUSCULAR VOLUME [2]: 63.47 fL
- MONOCYTE [2]: 2%
- NEUTROPHIL [2]: 7.67%
- NUCLEATED RED BLOOD CELLS [2]: 0.17 /100WBC
- PLATELET COUNT [2]: 1251.67 x10E3/uL
- ALANINE AMINOTRANSFERASE [2]: 43.33 u/L
- ALBUMIN [2]: 4.22 G/DL
- ALKALINE PHOSPHATASE [2]: 365.67 u/L
- ASPARTATE AMINOTRANSFERASE [2]: 83.67 u/L
- BLOOD UREA NITROGEN [2]: 18.17 mg/dL
- CARBON DIOXIDE [2]: 28.67 mmol/L
- CHLORIDE [2]: 103.5 MEQ/L
- CHOLESTEROL [2]: 71.5 mg/dL
- CREATINE PHOSPHOKINASE [2]: 284.5 u/L
- CREATININE [2]: 0.21 mg/dL
- GLUCOSE [2]: 161.67 mg/dL
- LACTATE DEHYDROGENASE [2]: 259.67 u/L
- LIPASE [2]: 9.5 u/L
- PHOSPHORUS [2]: 12.45 mg/dL
- POTASSIUM [2]: 6.49 MEQ/L
- SODIUM [2]: 144.25 MEQ/L
- TOTAL BILIRUBIN [2]: 0.2 mg/dL
- TOTAL PROTEIN [2]: 6.1 G/DL
- URIC ACID [2]: 1.73 mg/dL
- ABSOLUTE BASOPHIL [3]: 0 CELLS/uL
- ABSOLUTE EOSINOPHIL [3]: 0 CELLS/uL
- ABSOLUTE LYMPHOCYTE [3]: 7799.67 CELLS/uL
- ABSOLUTE MONOCYTE [3]: 242.67 CELLS/uL
- ABSOLUTE SEGMENTED NEUTROPHIL [3]: 691 CELLS/uL
- BASOPHIL [3]: 0%
- EOSINOPHIL [3]: 0%
- ERYTHROCYTE COUNT [3]: 5.44 x10E6/uL
- HEMATOCRIT [3]: 34.63%
- HEMOGLOBIN [3]: 12.8 G/DL
- LEUKOCYTE COUNT [3]: 8.73 x10E3/uL
- LYMPHOCYTE [3]: 89.33%
- MEAN CORPUSCULAR HEMOGLOBIN [3]: 23.6 pg
- MEAN CORPUSCULAR HEMOGLOBIN CONCENTRATION [3]: 36.97 G/DL
- MEAN CORPUSCULAR VOLUME [3]: 63.73 fL
- MONOCYTE [3]: 2.67%
- NEUTROPHIL [3]: 8%
- NUCLEATED RED BLOOD CELLS [3]: 0 /100WBC
- PLATELET COUNT [3]: 1233.67 x10E3/uL
- ALANINE AMINOTRANSFERASE [3]: 50 u/L
- ALBUMIN [3]: 4.33 G/DL
- ALKALINE PHOSPHATASE [3]: 470.67 u/L
- ASPARTATE AMINOTRANSFERASE [3]: 82 u/L
- BLOOD UREA NITROGEN [3]: 13.67 mg/dL
- CARBON DIOXIDE [3]: 29.33 mmol/L
- CHLORIDE [3]: 101.5 MEQ/L
- CHOLESTEROL [3]: 90.33 mg/dL
- CREATINE PHOSPHOKINASE [3]: 213.33 u/L
- CREATININE [3]: 0.21 mg/dL
- GLUCOSE [3]: 138.33 mg/dL
- LACTATE DEHYDROGENASE [3]: 128.67 u/L
- LIPASE [3]: 9 u/L
- PHOSPHORUS [3]: 11.63 mg/dL
- POTASSIUM [3]: 6.14 MEQ/L
- SODIUM [3]: 146.7 MEQ/L
- TOTAL BILIRUBIN [3]: 0.3 mg/dL
- TOTAL PROTEIN [3]: 6.07 G/DL
- URIC ACID [3]: 0.97 mg/dL
